In patent EP0728012B1, “NOVEL GnRH ANALOGUES WITH ANTITUMOUR EFFECTS AND PHARMACEUTICAL COMPOSITIONS THEREOF” (Lovas, Sandor, priority 1994, dated 1996):
Non-standard residues stand in square brackets, D forms with d. Residues, ends and D or L forms follow the SMILES beside them. dPhe(4-Cl) = N[C@H](Cc1ccc(Cl)cc1)C(=O)O

Experiments:
[1] = system: Ishikawa; details: 30 µM, peptide alone, two treatments on days 2 and 4
Description: The procedure of treatment was as follows. After trypsinization the cells, 400,000 cells of MCF-7, MDA-MB-231 human mammary carcinoma, PC3 human prostate carcinoma or Ishikawa human endometrium tumour each were passed into Petri dishes of 10 cm in diameter. Starting from the day following transfer, the cells were treated with the substances to be tested in solution prepared with the nutrient medium during the exponential growth phase. The cultures were treated with 1 to 50 µM (calculated for the total volume of the culture) or MI-1544 GnRH antagonist, MI-1892 chicken GnRH antagonist or SJ-1004 GnRH […] on the 7th day.

[2] = system: MCF-7 human mammary carcinoma cell line; experiment: Inhibition of colony formation (dose-survival relation, Example 18); assay type: cell-based; details: 50 µM (active substance), treated once
Description: (§1) In the case of cytostatics the cell-damaging effect is not cell-specific. […] One part of the arrested cells again go into the cycle, the other part may perish (apoptosis). […] The investigations were carried out on MCF-7 and MDA-MB-231 human mammary carcinoma cell lines, PC3 human prostate 15 carcinoma cell line and Ishikawa human endometrium carcinoma cell line. Three hundred cells were set into Petri dishes of 3.5 cm in diameter each. The treatment was carried out once, 24 hours following the explantation, then the colonies formed were counted after 9 to 12 days.

[3] = system: PC3 human prostate carcinoma cell line; experiment: as above; assay type: cell-based; details: 50 µM
Description: as §1

[4] = system: Ishikawa human endometrium carcinoma cell line; experiment: as above; assay type: cell-based; details: 50 µM
Description: as §1

[5] = system: MDA-MB-231 human mammary carcinoma cell line; experiment: as above; assay type: cell-based; details: 50 µM
Description: as §1

[6] = system: PC3; experiment: In vitro inhibition of cell proliferation (Example 19); assay type: cell-based, human; details: 30 µM, peptide alone, two treatments on days 2 and 4
Description: The procedure of treatment was as follows. After trypsinization the cells, 400,000 cells of MCF-7, MDA-MB-231 human mammary carcinoma, PC3 human prostate carcinoma or Ishikawa human endometrium tumour each were passed into Petri dishes of 10 cm in diameter. Starting from the day following transfer, the cells were treated with the substances to be tested in solution prepared with the nutrient medium during the exponential growth phase. The cultures were treated with 1 to 50 µM (calculated for the total volume of the culture) or MI-1544 GnRH antagonist, MI-1892 chicken GnRH antagonist or SJ-1004 GnRH antagonist analogues as well as synthetic lamprey GnRH-III hormone every two days and the cell count was determined on the 7th day.

[7] = system: MXT mouse mammary tumour; experiment: In vivo antitumour effect on mice bearing MXT mouse mammary tumour; set-up: species or system CBA/Ca mice
Description: The MXT mouse mammary carcinoma contains ER and PgR proteins; furthermore, it contains also GnRH receptors; therefore, this in vivo tumour model is suitable for studying both the direct and indirect effects. The treatment of mice bearing MXT mammary tumour was commenced on the day following transplantation. […] Table VI The animals were daily treated in s.c. route starting from the day following transplantation of MXT mouse mammary tumour. […] MI-1544: 75 µg/day/animal; MI-1892: 75 µg/day/animal.

[8] = system: MDA-MB-231; assay type: cell-based, human; details: MDA-MB-231 ER-negative; after 6 days' treatment; dose not stated
Description: (§2) After being treated with trypsin, 300.000 each of MCF-7, MDA-MB-231, PC3 or Ishikawa cells, respectively, were passed into Petri dishes of 10 cm in diameter. Starting from the day following the setting, the cells were treated with 1-50 µM of the GnRH analogue in the exponential growth phase. During the experiment lasting for 5 days, the cells were treated in every two days with the peptide hormone dissolved in the nutrient medium, then the cell count was determined on the sixth day.

[9] = system: MCF-7; assay type: cell-based, human; details: MCF-7 ER-positive; after 6 days' treatment; dose not stated
Description: as §2

[10] = system: human tumour cell lines; assay type: cell-based; details: 30 µM
Description: as §2

[11] = system: MDA-MB-231; experiment: Inhibition of colony formation by GnRH analogues (dose-survival, Example 48); assay type: cell-based, human
Description: (§3) The examination gives accurate information about the cell-damaging effect of the substance tested as a function of varying doses. The treatment was carried out once; the colonies formed from the surviving cells were counted after 8 - 12 days. […] A part of the arrested cells again entered the cycle, another part of them might be destroyed (apoptosis). […] In the case of a dose-response investigation, colonies containing less than 15 cells were not counted. 300 cells were put into each Petri dishes of 3.5 cm in diameter. The treatment was once carried out 24 hours after setting, then the colonies formed were counted after 8 - 12 days. The cells were treated once after 24 hours with 1-50 µM of various GnRH analogues of Examples above or with 1 - 50 µM of GnRH-III, respectively. The percentages of inhibition obtained on MCF-7, MDA-MB-231, PC3 and Ishikawa cells, respectively, together with the dose of the active agent used are shown in Table VIII.

[12] = system: MCF-7; experiment: as above; assay type: cell-based, human; details: treated once
Description: as §3

[13] = system: PC3; experiment: as above; assay type: cell-based, human
Description: as §3

[14] = system: Ishikawa; experiment: as above; assay type: cell-based, human; details: 50 µM
Description: as §3

[15] = system: human tumour cell lines; experiment: Inhibition of colony formation (Example 48), comparison with the control D-Trp^6-hGnRH; assay type: cell-based; details: data of Table VIII
Description: as §3
In these studies the D-Trp^6-hGnRH analogue (Sigma Co.) commonly used in the tumour therapy was employed as control.

[16] = MXT mouse mammary tumour, Treatment weeks: 13, 1x75 µg daily s.c.
[17] = MXT mouse mammary tumour, Treatment weeks: 20, 1x75 µg daily s.c.

For `CC(=O)N[C@H](Cc1c[nH]c2ccccc12)C(=O)N[C@H](Cc1ccc(Cl)cc1)C(=O)N[C@H](Cc1c[nH]c2ccccc12)C(=O)N[C@@H](CO)C(=O)N[C@@H](Cc1ccc(O)cc1)C(=O)N[C@H](CCCCN)C(=O)N[C@@H](CC(C)C)C(=O)N[C@@H](CCCNC(=N)N)C(=O)N1CCC[C@H]1C(=O)N[C@H](C)C(N)=O` [MI-1544, Ac-D-Trp^1,3,D-Cpa^2,D-Lys^6,D-Ala^10-hGnRH, reference compound] (Ac-[dW][dPhe(4-Cl)][dW]SY[dK]LRP[dA]-NH2), the inhibition of proliferation [1] was 8%, the “% Inhibition of colony formation” value [2] was 45% and the “% Inhibition of colony formation” value [3] was 20%. For the same compound, the “% Inhibition of colony formation” value [4] was 5%, the “% Inhibition of colony formation” value [5] was 20% and the inhibition of proliferation [6] was 24%. For the same compound, the Inhibition % [7, 16] was 46%, the “Tumour volume as control (%)” value [7, 16] was 54% and the Inhibition % [7, 17] was 46%. For the same compound, the “Tumour volume as control (%)” value [7, 17] was 54%, the “Tumour volume (cm^3)” value ([7]; day 9, 75 µg/day/animal s.c.) was 0.44 cm^3 and the “Tumour volume as control (%)” value ([7]; day 9, 75 µg/day/animal s.c.) was 63%. The “Tumour volume (cm^3)” value ([7]; day 11, 75 µg/day/animal s.c.) was 1.03 cm^3, the “Tumour volume as control (%)” value ([7]; day 11, 75 µg/day/animal s.c.) was 57% and the “Tumour volume (cm^3)” value ([7]; day 13, 75 µg/day/animal s.c.) was 1.74 cm^3. For the same compound, the “Tumour volume as control (%)” value ([7]; day 13, 75 µg/day/animal s.c.) was 54%, the “Tumour volume (cm^3)” value ([7]; day 17, 75 µg/day/animal s.c.) was 2.63 cm^3 and the “Tumour volume as control (%)” value ([7]; day 17, 75 µg/day/animal s.c.) was 51%. The “Tumour volume (cm^3)” value ([7]; day 18, 75 µg/day/animal s.c.) was 3.94 cm^3, the “Tumour volume as control (%)” value ([7]; day 18, 75 µg/day/animal s.c.) was 53% and the “Tumour volume (cm^3)” value ([7]; day 20, 75 µg/day/animal s.c.) was 5.02 cm^3. The “Tumour volume as control (%)” value ([7]; day 20, 75 µg/day/animal s.c.) was 54%, the “Tumour volume (cm^3)” value ([7]; day 24, 75 µg/day/animal s.c.) was 6.08 cm^3 and the “Tumour volume as control (%)” value ([7]; day 24, 75 µg/day/animal s.c.) was 48%. For the same compound, the “Tumour volume (cm^3)” value ([7]; day 26, 75 µg/day/animal s.c.) was 8.42 cm^3 and the “Tumour volume as control (%)” value ([7]; day 26, 75 µg/day/animal s.c.) was 60%.

For D-Phe^6-GnRH(1-9)-ethylamide [Ovurelin], the “inhibition of cell proliferation” value [8] was 25-30% and the “inhibition (change in the cell count)” value [9] was 5-15%.

With `CC(=O)NCCCC[C@H](NC(=O)[C@H](Cc1c[nH]c2ccccc12)NC(=O)[C@H](Cc1c[nH]cn1)NC(=O)[C@@H]1CCC(=O)N1)C(=O)N[C@@H](Cc1c[nH]cn1)C(=O)N[C@@H](CC(=O)O)C(=O)N[C@@H](Cc1c[nH]c2ccccc12)C(=O)N[C@@H](CCCCN)C(=O)N1CCC[C@H]1C(=O)NCC(N)=O` [7. [Lys(ε-AC)]^4 GnRH-III, [Lys(î-Ac)]^4 -GnRH-III] the proliferation-inhibiting effect [10] was 27-31%, the “% Inhibition of the colony formation” value ([11]; 10 µM) was 31% and the “% Inhibition of the colony formation” value ([11]; 50 µM) was 42%. The “% Inhibition of the colony formation” value ([11]; 50 µM, listed as Example 32, 50 µM) was 35-42%, the “% Inhibition of the colony formation” value ([12]; 10 µM) was 40% and the “% Inhibition of the colony formation” value ([12]; 50 µM) was 52%. For the same compound, the “% Inhibition of the colony formation” value ([13]; 50 µM) was 0%, the “inhibition of colony formation” value ([13]; within the dose range used (1-50 µM)) was “did not influence” and the “% Inhibition of the colony formation” value [14] was 14%. The “inhibitory effect compared with the control D-Trp^6-hGnRH” value [15] was “exceeded the inhibitory effect of control”.
